By IC50 is commonly meant the concentration that inhibits the measured activity by half. What is called Ki is the equilibrium dissociation constant of an inhibitor or competing ligand from its target.

Structures are written as SMILES. Where a name gives a salt, the structure may show the parent alone.

For the first assay, the target named is T1, Cloned Human Serotonin Receptor, Subtype 7 (h5HT7) (Homo sapiens, UniProt P34969).
T1 construct: purchased PerkinElmer 6120512; host or cells: CHO cells (membranes coated on Basic FlashPlate SMP200)
T1 sequence (P34969 whole entry): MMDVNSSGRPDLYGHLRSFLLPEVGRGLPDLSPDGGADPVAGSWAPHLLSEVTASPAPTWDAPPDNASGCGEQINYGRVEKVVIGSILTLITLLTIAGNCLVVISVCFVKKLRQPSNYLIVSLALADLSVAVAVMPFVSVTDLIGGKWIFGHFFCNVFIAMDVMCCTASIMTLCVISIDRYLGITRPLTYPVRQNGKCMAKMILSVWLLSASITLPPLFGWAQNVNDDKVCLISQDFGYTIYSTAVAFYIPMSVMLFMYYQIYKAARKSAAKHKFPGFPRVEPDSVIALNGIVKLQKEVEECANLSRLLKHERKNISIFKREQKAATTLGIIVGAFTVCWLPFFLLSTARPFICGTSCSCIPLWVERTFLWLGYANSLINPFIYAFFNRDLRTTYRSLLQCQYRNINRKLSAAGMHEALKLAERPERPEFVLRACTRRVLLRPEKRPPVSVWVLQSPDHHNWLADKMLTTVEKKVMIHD
In words: Radioligand binding assay, [125I]LSD, h5HT7 expressed in CHO cells. The following applies: radioligand [125I]LSD 0.82 nM, read-out: 5-HT7 IC50. As for the experimental part:
Radioligand binding assays were performed using the Cloned Human Serotonin Receptor, Subtype 7 (h5HT7), expressed in CHO cells, coated on Flashplate (Basic FlashPlate Cat.: SMP200) from PerkinElmer (Cat.: 6120512). The protocol assay was essentially the recommended protocol in the Technical Data Sheet by PerkinEmer Life and Analytical Sciences. The Mass membrane protein/well was typically 12 μg and the Receptor/well was about 9-10 fmoles. The Flashplate were let equilibrate at room temperature for one hour before the addition of the components of the assay mixture. The binding buffer was: 50 mM Tris-HCl, pH 7.4, containing 10 mM MgCl2, 0.5 mM EDTA and 0.5% BSA. The radioligand was [^125I]LSD at a final concentration of 0.82 nM. Nonspecific binding was determined with 50 μM of Clozapine. The assay volume was 25 μl. TopSeal-A were applied onto Flashplate microplates and they were incubated at room temperature for 240 minutes in darkness. The radioactivity were quantified by liquid scintillation spectrophotometry (Wallac 1450 Microbeta Trilux) with a count delay of 4 minutes prior to counting and a counting time of 30 seconds per well. Competition binding data were analyzed by using the LIGAND program (Munson and Rodbard, LIGAND: A versatile, computerized approach for characterization of ligand-binding systems. Anal. Biochem. 107: 220-239, 1980) and assays were performed in triplicate determinations for each point.
For `CNC1CCc2ccc(-c3c(OC)cccc3OC)cc21` (stereo not drawn) [Example 11, [6-(2,6-Dimethoxy-phenyl)-indan-1-yl]-methyl-amine], the half-maximal inhibitory concentration (IC50) amounted to 195 ± 86 nM. Still for that read-out and setting: in the case of `Cc1nn(C)c(C)c1-c1ccc2c(c1)C(N(C)C)CC2` (stereo not drawn) [Example 1, Dimethyl-[6-(1,3,5-trimethyl-1H-pyrazol-4-yl)-indan-1-yl]-amine dihydrochloride] it was 15.5 ± 2.9 nM; in that of `COc1ccccc1-c1ccc2c(c1)C(N(C)C)CC2` (stereo not drawn) [Example 12, [6-(2-Methoxy-phenyl)-indan-1-yl]-dimethyl-amine], 68.4 ± 1.1 nM. Same read-out and setting: next, `Cc1nn(C)c(C)c1-c1ccc2c(c1)[C@@H](N(C)C)CC2` [Example 3, (S) Dimethyl-[6-(1,3,5-trimethyl-1H-pyrazol-4-yl)-indan-1-yl]-amine]: 307 ± 181 nM.

In the case of `CNC1CCc2ccc(-c3c(C)nn(C)c3C)cc21` (stereo not drawn) [Example 4, Methyl-[6-(1,3,5-trimethyl-1H-pyrazol-4-yl)-indan-1-yl]-amine], the concentration for half-maximal inhibition (IC50) came out at 18.7 nM. On the same count and under the same terms, next, `COc1cccc(OC)c1-c1ccc2c(c1)C(N(C)C)CC2` (stereo not drawn) [Example 10, [6-(2,6-Dimethoxy-phenyl)-indan-1-yl]-dimethyl-amine]: 53.5 ± 10.1 nM. The same measure, in the same setting: next, `Cc1nn(C)c(C)c1-c1ccc2c(c1)[C@H](N(C)C)CC2` [Example 2, (R)-Dimethyl-[6-(1,3,5-trimethyl-1H-pyrazol-4-yl)-indan-1-yl]-amine]: 5.5 ± 2.7 nM. As to `CNC1CCc2ccc(-c3ccccc3OC)cc21` (stereo not drawn) [Example 13, [6-(2-Methoxy-phenyl)-indan-1-yl]-methyl-amine], the IC50 came out at 77.7 ± 40.9 nM.

Staying with this assay, now noted: radioligand [125I]LSD 0.82 nM, read-out: 5-HT7 Ki.
For the compound `Cc1cccc(C)c1-c1ccc2c(c1)C(N(C)C)CC2` (stereo not drawn) [Example 14, [6-(2,6-Dimethyl-phenyl)-indan-1-yl]-dimethyl-amine], the Ki was 198 ± 31.9 nM. On the same count and under the same terms, in the case of `CNC1CCc2ccc(-c3c(F)cccc3F)cc21` (stereo not drawn) [Example 19, [6-(2,6-Difluoro-phenyl)-indan-1-yl]-methyl-amine] it was 47.6 ± 1.2 nM; in that of `CN[C@@H]1CCc2ccc(-c3c(C)nn(C)c3C)cc21` [Example 38, (R) Methyl-[6-(1,3,5-trimethyl-1H-pyrazol-4-yl)-indan-1-yl]-amine], 73.3 ± 9.3 nM. Regarding `Cc1nn(C)c(C)c1-c1ccc2c(c1)C([N+](C)(C)C)CC2` (stereo not drawn) [Example 36, Trimethyl-[6-(1,3,5-trimethyl-1H-pyrazol-4-yl)-indan-1-yl]-ammonium iodide], the Ki was determined as 153 ± 32.4 nM.

Turning to `COc1cccc(Cl)c1-c1ccc2c(c1)C(N(C)C)CC2` (stereo not drawn) [Example 20, [6-(2-Chloro-6-methoxy-phenyl)-indan-1-yl]-dimethyl-amine], the Ki was 25.8 ± 2.7 nM.

On to `CNC1CCc2ccc(-c3c(C)cccc3C)cc21` (stereo not drawn) [Example 15, [6-(2,6-Dimethyl-phenyl)-indan-1-yl]-methyl-amine], for which the inhibitory constant (Ki) was found to be 75.2 ± 2 nM. On the same count and under the same terms, next, `CNC1CCc2ccc(-c3c(Cl)cccc3OC)cc21` (stereo not drawn) [Example 21, [6-(2-Chloro-6-methoxy-phenyl)-indan-1-yl]-methyl-amine]: 55.7 ± 1.2 nM.

The values are drawn from patent US8232307B2, “Indane-amine derivatives, their preparation and use as medicaments” (Laboratorios del Dr. Esteve, S.A., priority 2007, dated 2012).
